The values below come from patent publication US9878977B2, “N-((3,4,5-trimethoxystyryl)aryl)cinnamamide compounds as potential anticancer agents and process for the preparation thereof” (COUNCIL OF SCIENTIFIC & INDUSTRIAL RESEARCH, priority 2014, dated 2018).

Each structure is given as a SMILES string. Where two headings read alike, the source gives them in different places.

The test system of one assay is DU-145. The assay can be described thus: SRB anti-proliferative assay, DU-145. The conditions noted are these: DU-145; Human prostate cancer; concentration of drug causing 50% inhibition of cell growth; read-out: GI50 DU-145. The assay is classed as cell-based, Human. As for the experimental part:
(§1) The synthesized N-(3,4,5-trimethoxystyryl)aryl)cinnamamides were evaluated for their anti-proliferative activity in selected human cancer cell lines of breast cancer (MCF-7), prostate cancer (DU-145), lung cancer (Hop-62), cervical cancer (Hela), leukemia (K562), ovarian cancer (SK-OV-3), colon cancer (Colo-205), pancreatic (MAIPA-CA-2) by using sulforhodamine B (SRB) method (Vichai, V.; Kirtikara, K. Nat. Protoc. 2006, 1, 1112). […] CA-4 was used as the reference compound.

For the next assay, the system named is Hela. The assay can be described thus: SRB anti-proliferative assay, Hela. The assay is classed as cell-based, Human. The conditions noted are these: Human cervical cancer, concentration of drug causing 50% inhibition of cell growth, read-out: GI50 Hela. As for the experimental part: as §1
Assay [1] has as its system Hop-62. The conditions noted are these: Human lung cancer; data from NCI60 dose response (NSC 613729); cited from earlier work.
The test system of assay [2] is K562. The conditions noted are these: Human leukemia; data from NCI60 dose response (NSC 613729); cited from earlier work.
The test system of another assay is Colo-205. In words: SRB anti-proliferative assay, Colo-205. The class given is cell-based, Human. The conditions noted are these: COLO 205; Human colon cancer; concentration of drug causing 50% inhibition of cell growth; read-out: GI50 Colo-205. On the procedure: as §1
Another assay concerns MCF-7. The assay can be described thus: SRB anti-proliferative assay, MCF-7. The conditions noted are these: MCF7; Human breast cancer; concentration of drug causing 50% inhibition of cell growth; read-out: GI50 MCF-7. The assay is classed as cell-based, Human. As for the experimental part: as §1
Assay [3] has as its system SK-OV-3. The conditions noted are these: Human ovarian cancer; data from NCI60 dose response (NSC 613729); cited from earlier work.
The test system of assay [4] is SK-OV-3. The assay can be described thus: SRB anti-proliferative assay, SK-OV-3. The assay is classed as cell-based, Human. The conditions noted are these: SK-OV-3; Human ovarian cancer; concentration of drug causing 50% inhibition of cell growth; read-out: GI50 SK-OV-3. On the procedure: as §1
Assay [5] has as its system K562. The assay can be described thus: SRB anti-proliferative assay, K562. The assay is classed as cell-based, Human. The conditions noted are these: K562; Human leukemia; concentration of drug causing 50% inhibition of cell growth; read-out: GI50 K562. On the procedure:
as §1

Assay [6] deals with Hop-62. The assay can be described thus: SRB anti-proliferative assay, Hop-62. The conditions noted are these: HOP-62; Human lung cancer; concentration of drug causing 50% inhibition of cell growth; read-out: GI50 Hop-62. The assay is classed as cell-based, Human. On the procedure: as §1
In another assay the test system is MAIPA-CA-2. In words: SRB anti-proliferative assay, MAIPA-CA-2. The class given is cell-based, Human. The conditions noted are these: Human pancreatic; concentration of drug causing 50% inhibition of cell growth; read-out: GI50 MAIPA-CA-2. On the procedure: as §1
The subject of the next assay is tubulin. The conditions noted are these: reported in J. Med. Chem. 2008, 51, 6211; cited from earlier work.

Turning to `COc1ccc(/C=C\c2cc(OC)c(OC)c(OC)c2)cc1O` [CA-4, combretastatin A4, reference compound], the concentration for 50% growth inhibition (GI50) in the assay on DU-145 is 46 nM; in the assay with Hela, 8 nM; in the assay on Hop-62 [1], 150 nM; with K562 [2], 31 nM; in the assay with Colo-205, 25 nM; in the assay on MCF-7, 33 nM. The GI50 with SK-OV-3 [3] is 31600 nM.
As for `COc1ccc(/C=C/C(=O)Nc2c(C=Cc3cc(OC)c(OC)c(OC)c3)ccc(OC)c2O)cc1[N+](=O)[O-]` [Compound 20y, (E)-N-(2-Hydroxy-3-methoxy-6-(3,4,5-trimethoxystyryl)phenyl)-3-(4-methoxy-3-nitrophenyl)acrylamide], the GI50 with DU-145 was 64700 nM; with Hela, 49200 nM; in the assay on SK-OV-3 [4], 52600 nM; in the assay on K562 [5], 46800 nM; in the assay with Hop-62 [6], 71300 nM; in the assay with MAIPA-CA-2, > 100000 nM. For the same compound, the GI50 in the assay on Colo-205 is > 100000 nM; in the assay on MCF-7, 19400 nM.
On to `COc1ccc(/C=C/C(=O)Nc2c(C=Cc3cc(OC)c(OC)c(OC)c3)ccc(OC)c2O)cc1N` [Compound 20z, (E)-3-(3-Amino-4-methoxyphenyl)-N-(2-hydroxy-3-methoxy-6-(3,4,5-trimethoxystyryl)phenyl)acrylamide], for which the 50% growth inhibitory concentration (GI50) with DU-145 was 79 nM; in the assay on Hela, 91 nM; with SK-OV-3 [4], 97 nM; in the assay with K562 [5] it was 89 nM; in the assay on Hop-62 [6], 44 nM; in the assay with MAIPA-CA-2 it was 14300 nM. The 50% growth inhibitory concentration (GI50) in the assay on Colo-205 was found to be 89 nM; with MCF-7, 50 nM.
As for `COc1cc(/C=C\c2ccc(OC)c(N)c2)cc(OC)c1` [Compound S3, (Z)-5-(3,5-dimethoxystyryl)-2-methoxyaniline], the “inhibits tubulin polymerization, compared with CA-4” value in the assay on tubulin is “stronger than CA-4 by five folds”.
